The results in this text go back to EPA's ToxValDB 9.5.

Converted amounts (≈) assume the structure as drawn. “And” between values parts separate entries of the source, which are not always exact repeats. Identical values can stand only once.

Data set [1] has as its system Rattus norvegicus. The conditions noted are these: injection, subcutaneous; for LEL: uterotrophic, duration: 3 days, Active.
The test system of data set [2] is Rattus norvegicus. Conditions: for LD50 / LC50: acute.
In the next data set the test system is Mus musculus. The conditions noted are these: for LD50 / LC50: acute.
In the next data set the test system is Oryctolagus sp. The conditions noted are these: for LD50: acute.
For data set [3], the system named is Rattus norvegicus. Conditions: subchronic; oral; gavage; M; Sprague-Dawley; Food Consumption: increase + Urinalysis: Ketone body decrease + Blood Chemistry: T-Cho increase, PL increase, TP increase + Absolute Organ ….
Where [4] appears, read: subchronic, duration: 13 weeks, oral, diet, Wistar.
The mark [5] stands for this setting: subchronic, duration: 13 weeks, oral, diet, ICR.
[6] abbreviates: chronic, duration: 4 months, inhalation.

Consider `CCCOC(=O)c1ccc(O)cc1` [Propylparaben], for which, in the data set on Rattus norvegicus [1], the LEL is 65 mg/kg-day.

For the compound `[Cl][Zn][Cl]` [Zinc chloride], the LOAEL with Rattus norvegicus [2] (short-term, duration: 4 weeks, oral, drinking water, Wistar) came to 12 mg/kg-day; with Rattus norvegicus [2] (setting [4]), 2880 mg/kg-day; with Mus musculus (setting [5]), 5910 mg/kg-day. In addition, the NOAEL with Rattus norvegicus [2] (setting [4]) came to 288 mg/kg-day; in the data set with Mus musculus (developmental, duration: 18 days, injection, Intraperitoneal, CF1), 12.5 mg/kg-day; in the data set with Mus musculus (reproduction developmental, duration: 18 days, injection, Intraperitoneal, F, CF1) it was 12.5 mg/kg-day; in the data set with Mus musculus (setting [5]) it was 591 mg/kg-day. For the same compound, the LD50 in the data set on Mus musculus (oral, gavage, Swiss) is 1260 mg/kg and 605 mg/kg.

For `CC(C)(C)C1CCC(O)CC1` (stereo not given) [4-tert-Butylcyclohexanol], the LD50 is greater than 5000 mg/kg with Oryctolagus sp. (dermal); 4200 mg/kg in the data set on Rattus norvegicus [2] (oral); ≥ 50 mg/kg and ≤ 100 mg/kg with Mus musculus (injection, Intraperitoneal, CF1). Besides, the LOAEL in the data set with Rattus norvegicus [2] (short-term, duration: 28 days, oral, gavage, Wistar) is 150 mg/kg-day.

In the case of `CCC(C)(C)c1ccc(O)cc1` [4-(2-Methylbutan-2-yl)phenol], in the data set with Rattus norvegicus [1], the LEL is 200 mg/kg-day and 202 mg/kg-day.

As to `CC(C)OC(C)C` [Isopropyl ether], the NOEL with Rattus norvegicus [3] is less than 100 mg/kg-day. Moreover, the LD50 in the data set with Oryctolagus sp. (dermal, non-occlusive, New Zealand) is greater than 2000 mg/kg; in the data set on Oryctolagus sp. (oral, New Zealand), 4500 mg/kg. For the same compound, the NOAEL in the data set with Rattus norvegicus [2] (reproduction developmental, duration: 13 weeks, inhalation, Sprague-Dawley) was determined as 2010 mg/m3; with Rattus norvegicus [2] (reproduction developmental, duration: 10 days, inhalation, F, Sprague-Dawley), 1800 mg/m3.

In the data set on Oryctolagus sp. (setting [6]), `C1CCNCC1` [Piperidine] gave an LOAEL of 0.01 mg/L and a no-observed-adverse-effect level (NOAEL) of 0.002 mg/L. Moreover, in the data set on Rattus norvegicus [2] (inhalation), the LC50 is greater than 6970 mg/m3. In the data set with Rattus norvegicus [2] (setting [6]), this compound returned an LOAEL of 0.01 mg/L and an NOAEL of 0.002 mg/L. For the same compound, the “NOAEL (% diet)” value in the data set on Rattus norvegicus [2] (chronic, duration: 50 weeks, oral, drinking water, Sprague-Dawley) turned out to be 0.09. Besides, in the data set on Mus musculus (oral, DD), the median lethal dose (LD50) was 536 mg/kg and 633 mg/kg.

Turning to `C=C[C@@]12CCc3cc(O)ccc3[C@H]1CC[C@@]1(C)[C@H]2CC[C@@H]1O` [8beta-Vinylestra-1,3,5(10)-triene-3,17beta-ol], the LOEL in the data set on Rattus norvegicus [1] (Hershberger, duration: 12 days, Wistar, active + Androgenic + androgenic) stood at 100 mg/kg-day.

Regarding `NC(CO)(CO)CO` [Tromethamine], the LD50 was greater than 1000 mg/kg in the data set with Rattus norvegicus [2] (dermal); 6000 mg/kg in the data set on Rattus norvegicus [2] (injection, intravenous); greater than 3000 mg/kg in the data set with Rattus norvegicus [2] (oral, gavage, Wistar); greater than 1000 mg/kg in the data set on Mus musculus (dermal); 3350 mg/kg with Mus musculus (injection, Intraperitoneal); 6100 mg/kg in the data set with Mus musculus (injection, intravenous). In the data set with Mus musculus (oral, gavage, Swiss), this compound had an LD50 greater than 3000 mg/kg. Moreover, the NOAEL in the data set with Rattus norvegicus [2] (reproduction developmental, duration: 29 days, oral, gavage, Crl:CD(SD), generation: F0) came to 1000 mg/kg-day; in the data set with Rattus norvegicus [2] (reproduction developmental, duration: 29 days, oral, gavage, Crl:CD(SD), generation: F1), 1000 mg/kg-day; in the data set on Rattus norvegicus [2] (reproduction developmental, duration: 29 days, oral, gavage, generation: F0), 1000 mg/kg-day; in the data set on Rattus norvegicus [2] (reproduction developmental, duration: 29 days, oral, gavage, generation: F1) it was 1000 mg/kg-day; with Rattus norvegicus [2] (short-term, duration: 20 days, injection, intravenous, Sprague-Dawley), 500 mg/kg-day.

`c1ccc2cc3c(ccc4ccccc43)cc2c1` [Benz(a)anthracene]: the LEL with Rattus norvegicus [1] is 1 mg/kg-day.

As to `CN=C=O` [Methyl isocyanate], the LOAEL in the data set on Rattus norvegicus [2] (developmental, duration: 0.5 hours, inhalation) was less than 0.495 mg/m3; in the data set on Rattus norvegicus [2] (reproduction developmental, duration: 0.5 hours, inhalation, F), less than 0.495 mg/m3; in the data set on Mus musculus (developmental, duration: 6 hours, inhalation, Swiss), less than 2.33 mg/m3. The NOAEL in the data set with Rattus norvegicus [2] (reproduction developmental, duration: 8 minutes, inhalation, whole body, Wistar, generation: F0) is greater than 3140 mg/m3; in the data set on Rattus norvegicus [2] (reproduction developmental, duration: 0.5 hours, inhalation, generation: F0), greater than 0.824 mg/m3; with Mus musculus (reproduction developmental, duration: 6 hours, inhalation, F, Swiss) it was greater than 7 mg/m3; in the data set with Mus musculus (reproduction developmental, duration: 6 hours, inhalation, Swiss, generation: F0), greater than 7 mg/m3.

For the compound `C=CF` [Vinyl fluoride], the lowest observed adverse effect level (LOAEL) in the data set on Rattus norvegicus [2] (subchronic, duration: 90 days, inhalation, Crl:CDABR) came to 377 mg/m3; in the data set on Mus musculus (subchronic, duration: 90 days, inhalation, Crl:CD-1 (ICR) BR), 377 mg/m3. This compound also came in with an LC50 with Mus musculus (inhalation) of 1.3e+06 mg/m3.

In the data set on Rattus norvegicus [1], `CC/C(=C(\c1ccc(O)cc1)c1ccc(OCCN(C)C)cc1)c1ccccc1` [(Z)-4-Hydroxytamoxifen] came in with an LEL of 0.00016 mg/day.

For the compound `C=C(C)C(=O)OCCN(C)C` [2-(Dimethylamino)ethyl methacrylate], the LD50 was greater than 3000 mg/kg in the data set with Oryctolagus sp. (dermal); greater than 2000 mg/kg in the data set with Rattus norvegicus [2] (dermal, Sprague-Dawley); greater than 2000 mg/kg in the data set with Rattus norvegicus [2] (oral, gavage, Crj:CD); 25 mg/kg with Mus musculus (injection, intraperitoneal). The LC50 in the data set on Rattus norvegicus [2] (inhalation) was 0.62 µg/mL (≈ 3.94 µM); in the data set on Mus musculus (inhalation), 1.8 µg/mL (≈ 11.4 µM). The no-observed-adverse-effect level (NOAEL) in the data set on Rattus norvegicus [2] (reproduction developmental, duration: 41 days, oral, gavage, Crj:CD, generation: F0) came to 200 mg/kg-day; with Rattus norvegicus [2] (short-term, duration: 3 weeks, inhalation) it was 643 mg/m3; in the data set with Rattus norvegicus [2] (subchronic, duration: 41 days, oral, gavage, Crj:CD) it was 200 mg/kg-day.

In general, LOAEL refers to the lowest tested level that showed an adverse finding. In general, NOAEL refers to the highest dose or exposure tested at which no adverse effect was seen. One may read the LD50 as the dose expected to kill half of the subjects tested. A lower LD50 goes with greater toxicity.
